Measured values as given in patent US20010029347A1, “Transdermal administrating device” (POLYTRONICS, LTD., priority 2000, published 2001).

Assays:
[1] = Concentration of Polyoxomethalate ion in blood of nude mouse during iontophoresis with transdermal administrating device V (Example 5, no bias power supply); format: in vivo
Protocol: When the transdermal administrating device V according to Example 5 was loaded on the back of a nude mouse, the chemical cell formed by the active electrode 22 and the inert electrode 24 generated an electromotive force of about 2.9V.
Removing the variable resistor 31 out of the circuit, the measurement and arithmetic operation for Rd and the measurement of the blood concentration in blood [M^−] were performed to prepare a calibration line representing the relationship between the Rd and the [M^−].
Next, a Rd0 value corresponding to a target concentration [M^−]0 was determined from the calibration line and the variable resistor […] was connected to the circuit.
The concentration of drug was controlled by controlling the value of the variable resistor 31 with measuring the Rd at varying times.

[2] = design: species or system HWY hairless rats; conditions: HWY hairless, rat, in vivo
Protocol: Transdermal administrating devices were attached on the back of each body of HWY hairless rats. A number of the rats were three a group. The concentration of L-ascorbic acid in blood was chemically detected to control the drug concentration in the blood [M^−]. The procedure thereof is described hereunder.
First, a calibration line was prepared. The EB was set at 1.5 V and the transdermal administrating device was attached on the back of each of the test rats.
In addition, blood examination for the rats was performed at those times. From the blood examination, the concentration of ascorbic acid in blood [M^−] was determined.
Next, using the calibration line shown in FIG. 5, the concentration of ascorbic acid in blood [M^−] was promptly converged to a constant value.
According to the indication from the CPU 6, the bias DC power supply 7 was operated to set EB=8V.
When the concentration of ascorbic acid in blood [M^−] should be maintained at a constant value, for example, at 5 (arb. unit) in FIG. 5, the Rd0 should be 6.3 kΩ (kilo ohm) based on the calibration line shown in FIG. 5.
In this case, when the Rd was determined, the EB was temporarily changed to 1.5 V and the voltage drop Vi at the external load was measured.
At the measurement after the current flowing time has elapsed for 20 minutes, the Rd was lower than the Rd0. The CPU 6 operated to feed back the bias voltage to reduce the bias voltage EB.

| Molecule | time after the beginning of flowing a current from which blood concentration [M-] is kept at the target concentration ([1]; control by variable resistor, no bias DC power supply) | permeability (iontophoresis through skin) ([1]; without bias DC power supply) | concentration of ascorbic acid in blood [M-], overshoot value [2] | time after the beginning of flowing a current to converge to constant blood concentration [2] | concentration of ascorbic acid in blood [M-], converged constant value ([2]; 1.5 hours) |
| --- | --- | --- | --- | --- | --- |
| K5[SiVW11O40] [Polyoxomethalate ion] | about 2 hours | high permeability | – | – | – |
| O=C1O[C@H]([C@@H](O)CO)C(O)=C1O [ascorbic acid, L-ascorbic acid] | – | – | about 6.5 arb. unit | about 1.5 hours | ~5 arb. unit |
